Laboratory results from patent US6541045B1, “Herbal composition and method for combating inflammation” (Nutraceutical Corporation, priority 2002, dated 2003).

Target: COX-1 (Homo sapiens, UniProt P23219)
Assay: COX-1 inhibition, resveratrol versus Japanese knotweed
Type: biochemical
Settings: pure resveratrol (99%) compared with Japanese knotweed

Chain of COX-1 (P23219 24-599): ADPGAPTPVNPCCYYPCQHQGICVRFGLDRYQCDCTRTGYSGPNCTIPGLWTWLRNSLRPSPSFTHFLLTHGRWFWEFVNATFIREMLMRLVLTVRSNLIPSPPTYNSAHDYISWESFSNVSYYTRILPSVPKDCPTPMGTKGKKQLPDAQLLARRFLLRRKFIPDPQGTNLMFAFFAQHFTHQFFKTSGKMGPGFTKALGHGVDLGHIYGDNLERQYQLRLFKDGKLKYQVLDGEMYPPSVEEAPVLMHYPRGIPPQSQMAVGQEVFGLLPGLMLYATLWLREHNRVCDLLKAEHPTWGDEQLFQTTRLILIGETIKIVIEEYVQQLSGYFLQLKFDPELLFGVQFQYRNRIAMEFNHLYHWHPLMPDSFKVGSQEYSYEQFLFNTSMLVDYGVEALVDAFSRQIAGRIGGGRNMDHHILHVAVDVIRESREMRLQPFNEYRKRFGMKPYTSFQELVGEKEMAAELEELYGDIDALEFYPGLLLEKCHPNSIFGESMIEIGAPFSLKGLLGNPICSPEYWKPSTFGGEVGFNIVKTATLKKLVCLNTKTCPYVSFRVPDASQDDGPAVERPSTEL

In the case of Oc1ccc(C=Cc2cc(O)cc(O)c2)cc1 [resveratrol], the “effectiveness for COX-1” value is reported as “just as effective”.
